Data taken from ChEMBL document CHEMBL4414554, “Colocalization Strategy Unveils an Underside Binding Site in the Transmembrane Domain of Smoothened Receptor” (J Med Chem, 2019).
The source made the active and inactive calls. No cut-off for these calls is given here.

Experiments:
Protein smoothened [1] = molecular target: Protein smoothened (Mus musculus, UniProt P56726); test: (§1) Antagonist activity at SMO in mouse NIH/3T3 cells harboring Gli-responsive firefly luciferase gene assessed as inhibition of SAG-induced response preincubated for 2 hrs followed by SAG addition and measured after 24 hrs by Bright-Glo luciferase assay; format: cell-based
Sequence of Protein smoothened (Mus musculus, UniProt P56726) (P56726 whole entry): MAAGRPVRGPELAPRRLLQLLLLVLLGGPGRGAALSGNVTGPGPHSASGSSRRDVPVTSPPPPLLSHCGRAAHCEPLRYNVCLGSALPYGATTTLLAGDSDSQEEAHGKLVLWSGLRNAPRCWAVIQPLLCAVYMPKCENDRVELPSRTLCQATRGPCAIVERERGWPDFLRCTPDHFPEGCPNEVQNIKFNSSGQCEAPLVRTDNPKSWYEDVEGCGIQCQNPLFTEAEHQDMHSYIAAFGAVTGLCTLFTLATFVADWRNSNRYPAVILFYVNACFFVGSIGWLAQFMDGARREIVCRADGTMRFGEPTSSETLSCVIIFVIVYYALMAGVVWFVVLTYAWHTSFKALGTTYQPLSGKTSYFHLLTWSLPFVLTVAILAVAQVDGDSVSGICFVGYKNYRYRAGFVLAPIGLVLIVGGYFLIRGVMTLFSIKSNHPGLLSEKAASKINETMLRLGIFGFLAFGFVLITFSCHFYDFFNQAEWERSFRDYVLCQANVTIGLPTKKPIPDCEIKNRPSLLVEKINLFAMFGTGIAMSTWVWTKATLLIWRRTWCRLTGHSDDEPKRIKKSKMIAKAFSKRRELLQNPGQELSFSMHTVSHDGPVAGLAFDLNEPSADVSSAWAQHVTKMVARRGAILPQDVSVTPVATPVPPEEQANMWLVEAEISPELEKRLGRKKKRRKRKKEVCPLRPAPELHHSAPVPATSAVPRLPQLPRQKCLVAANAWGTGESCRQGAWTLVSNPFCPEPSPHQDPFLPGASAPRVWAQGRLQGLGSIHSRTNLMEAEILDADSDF

Protein smoothened [2] = molecular target: T1, Protein smoothened (Homo sapiens, UniProt Q99835); test: Displacement of BODIPY-LY from SMO (unknown origin) expressed in HEK293F cells measured after 15 mins by flow cytometric analysis; format: cell-based
T1 sequence (Q99835 whole entry): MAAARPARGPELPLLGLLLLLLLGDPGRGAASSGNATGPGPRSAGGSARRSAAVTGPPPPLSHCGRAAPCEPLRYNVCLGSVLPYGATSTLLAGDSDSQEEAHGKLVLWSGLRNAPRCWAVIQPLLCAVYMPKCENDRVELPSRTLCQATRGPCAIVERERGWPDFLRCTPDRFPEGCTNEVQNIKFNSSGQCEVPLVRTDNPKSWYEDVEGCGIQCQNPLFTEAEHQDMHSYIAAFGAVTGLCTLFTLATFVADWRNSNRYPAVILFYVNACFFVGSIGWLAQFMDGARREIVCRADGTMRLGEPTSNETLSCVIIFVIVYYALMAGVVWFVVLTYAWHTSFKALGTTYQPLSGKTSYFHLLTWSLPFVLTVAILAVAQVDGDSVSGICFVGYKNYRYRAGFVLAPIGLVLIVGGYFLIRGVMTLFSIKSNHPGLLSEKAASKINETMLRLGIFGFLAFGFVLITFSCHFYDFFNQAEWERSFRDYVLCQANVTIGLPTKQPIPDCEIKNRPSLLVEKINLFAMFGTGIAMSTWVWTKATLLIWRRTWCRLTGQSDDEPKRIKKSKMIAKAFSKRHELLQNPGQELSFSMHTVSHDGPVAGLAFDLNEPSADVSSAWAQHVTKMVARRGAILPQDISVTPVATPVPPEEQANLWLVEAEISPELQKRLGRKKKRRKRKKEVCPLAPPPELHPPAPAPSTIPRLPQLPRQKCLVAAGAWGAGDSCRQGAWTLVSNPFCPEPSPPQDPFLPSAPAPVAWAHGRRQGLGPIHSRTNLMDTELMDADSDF

Protein smoothened [3] = molecular target: T1, Protein smoothened; test: Binding affinity to recombinant SMO Glu518 residue (unknown origin) assessed as modification of NRPSLLVEK (511 to 519 residue) at 20 uM preincubated for 3 hrs followed by UV irradiation for 15 mins by MS/MS analysis
Protein smoothened [4] = molecular target: T1, Protein smoothened; test: Binding affinity to recombinant SMO Glu135 residue (unknown origin) at 20 uM preincubated for 3 hrs followed by UV irradiation for 15 mins by MS/MS analysis
Protein smoothened [5] = molecular target: T1, Protein smoothened; test: Binding affinity to recombinant SMO Leu498 residue (unknown origin) at 20 uM preincubated for 3 hrs followed by UV irradiation for 15 mins by MS/MS analysis
Protein smoothened [6] = molecular target: T1, Protein smoothened; test: Binding affinity to recombinant SMO Lys510 residue (unknown origin) at 20 uM preincubated for 3 hrs followed by UV irradiation for 15 mins by MS/MS analysis
Protein smoothened [7] = molecular target: T1, Protein smoothened; test: Binding affinity to recombinant SMO Lys186 residue (unknown origin) at 20 uM preincubated for 3 hrs followed by UV irradiation for 15 mins by MS/MS analysis
Protein smoothened [8] = molecular target: T1, Protein smoothened; test: Binding affinity to recombinant SMO Gly527 residue (unknown origin) assessed as modification of INLFAMFGTGIAMSTWVWTKATLLIWRR peptide at 20 uM preincubated for 3 hrs followed by UV irradiation for 15 mins by MS/MS analysis
Protein smoothened [9] = molecular target: T1, Protein smoothened; test: Binding affinity to recombinant SMO Thr528 residue (unknown origin) assessed as modification of INLFAMFGTGIAMSTWVWTKATLLIWRR peptide at 20 uM preincubated for 3 hrs followed by UV irradiation for 15 mins by MS/MS analysis
Protein smoothened [10] = molecular target: T1, Protein smoothened; test: Binding affinity to recombinant SMO Gly529 residue (unknown origin) assessed as modification of INLFAMFGTGIAMSTWVWTKATLLIWRR peptide at 20 uM preincubated for 3 hrs followed by UV irradiation for 15 mins by MS/MS analysis
Protein smoothened [11] = molecular target: T1, Protein smoothened; test: Binding affinity to recombinant SMO Ala345 residue (unknown origin) at 20 uM preincubated for 3 hrs followed by UV irradiation for 15 mins by MS/MS analysis
Protein smoothened [12] = molecular target: T1, Protein smoothened; test: Binding affinity to recombinant SMO Thr349 residue (unknown origin) at 20 uM preincubated for 3 hrs followed by UV irradiation for 15 mins by MS/MS analysis
Protein smoothened [13] = molecular target: T1, Protein smoothened; test: Binding affinity to recombinant SMO Glu158 residue (unknown origin) at 20 uM preincubated for 3 hrs followed by UV irradiation for 15 mins by MS/MS analysis
Protein smoothened [14] = molecular target: T1, Protein smoothened; test: Binding affinity to recombinant SMO His103 residue (unknown origin) at 20 uM preincubated for 3 hrs followed by UV irradiation for 15 mins by MS/MS analysis
[15] = molecular target: Protein smoothened (Mus musculus) (UniProt P56726); test: as §1; format: cell-based
Sequence of Protein smoothened (Mus musculus) (P56726 whole entry): as the sequence (P56726 whole entry) above

Protein smoothened [16] = molecular target: T1, Protein smoothened; test: Binding affinity to recombinant human SMO at 0.1 to 20 uM preincubated for 1 hr followed by 365 nm UV irradiation for 20 mins and subsequent addition of TAMRA-N3 measured after 1 hr by fluorescence-based SDS-PAGE analysis

With `C[C@H]1C(=O)N(C2CCCCC2)C(=O)N1Cc1ccccc1` the IC50 (Protein smoothened [1]) was 8010 nM.

`C[C@H]1C(=O)N(c2ccc(N=[N+]=[N-])cc2)C(=O)N1Cc1ccccc1` was tested, and the IC50 (Protein smoothened [1]) was 58 nM, the Ki (Protein smoothened [2]) was 55 nM and the Activity (Protein smoothened [3]) was “Active”. The Activity (Protein smoothened [4]) was “Active”, the Activity (Protein smoothened [5]) was “Active” and the Activity (Protein smoothened [6]) was “Active”. The Activity (Protein smoothened [7]) was “Active”.

With `C[C@H]1C(=O)N(c2ccc(Cl)cc2)C(=S)N1Cc1ccccc1` the IC50 (Protein smoothened [1]) was 3790 nM.

Compound `C[C@H]1C(=O)N(c2ccc(Cl)cc2)C(=O)N1Cc1c(F)c(F)c(F)c(F)c1F` has an IC50 (Protein smoothened [1]) of 7380 nM.

`C[C@H]1C(=O)N(Cc2ccc(Cl)cc2)C(=O)N1Cc1ccccc1` showed an IC50 (Protein smoothened [1]) of 8100 nM.

In the case of `C[C@H]1C(=O)N(c2ccc(Cl)cc2)C(=O)N1Cc1ccc(N=[N+]=[N-])cc1`, the IC50 (Protein smoothened [1]) is reported as 3 nM, the Ki (Protein smoothened [2]) is reported as 45 nM and the Activity (Protein smoothened [8]) is reported as “Active”. The Activity (Protein smoothened [9]) was “Active”, the Activity (Protein smoothened [10]) was “Active” and the Activity (Protein smoothened [11]) was “Active”. For the same compound, the Activity (Protein smoothened [12]) was “Active”, the Activity (Protein smoothened [13]) was “Active” and the Activity (Protein smoothened [14]) was “Active”.

`FC(F)(F)Oc1ccc(-c2ccnc(Nc3ccc4[nH]ncc4c3)n2)cc1` gave a Ki (Protein smoothened [2]) of 30 nM.

`C[C@H]1C(=O)N(c2ccc(Cl)cc2)C(=O)N1Cc1ccc(C2(C(F)(F)F)N=N2)cc1` was tested, and the Activity [15] was “inactive” and the inhibition (Protein smoothened [2]) was “inactive”.

Compound `C[C@H]1CN(c2ccc(Cl)cc2)C(=O)N1Cc1ccccc1` has an IC50 (Protein smoothened [1]) of 4550 nM.

With `C[C@H]1C(=O)N(c2ccc(Cl)cc2)C(=O)N1c1ccccc1` the IC50 (Protein smoothened [1]) was 547 nM.

With `C[C@H]1C(=O)N(c2ccc(Cl)cc2)C(=O)N1CCc1ccccc1` the IC50 (Protein smoothened [1]) was 92 nM.

In the case of `C[C@H]1C(=O)N(c2ccc(Cl)cc2)C(=O)N1Cc1ccccc1`, the IC50 (Protein smoothened [1]) is reported as 59 nM and the Ki (Protein smoothened [2]) is reported as 33 nM.

With `C#CCOc1ccc(N2C(=O)[C@H](C)N(Cc3ccc(N=[N+]=[N-])cc3)C2=O)cc1` the IC50 (Protein smoothened [1]) was 31 nM, the Ki (Protein smoothened [2]) was 28 nM and the Activity (Protein smoothened [16]) was “Active”.

`C[C@H]1C(=O)N(c2c(F)c(F)c(F)c(F)c2F)C(=O)N1Cc1ccccc1` showed an IC50 (Protein smoothened [1]) of 1530 nM.

`C[C@H]1C(=O)N(c2ccc(Cl)cc2)C(=O)N1CC1CCCCC1` was tested, and the IC50 (Protein smoothened [1]) was 383 nM.
